What is called Emax is the greatest response seen or fitted, relative to the assay's reference. One may read the EC50 as the concentration that produces a half-maximal response.

Experimental findings from patent EP4029501A1, “COMBINATION OF POLYAROMATIC UREA DERIVATIVES AND GLUCOCORTICOID OR HDAC INHIBITOR FOR THE TREATMENT OF DISEASES OR CONDITIONS ASSOCIATED WITH MUSCLE CELLS AND/OR SATELLITE CELLS” (Anagenesis Biotechnologies, priority 2021, dated 2022) are described below.

This test relates to muscle progenitors derived from DMD hiPSC. Description: Myotube assay: total myotube area per well (alpha-actinin staining). It counts as cell-based, human. Conditions: Homo sapiens, Myotube, 72 h, DMD or WT cell source not given; for Emax: efficacy, MA = normalized Myotube Area, 3 days incubation; for EC50: myogenic activity, half-maximal generation of myotubes, 10 points dose-response 1.5 nM to 30 µM, 3 days. The method, then: An in vitro assay for assessing the efficacy of compounds for use in treating, ameliorating, delaying, curing and/or preventing a disease or condition associated with muscle cells and/or satellite cells is described in example 78. Herein, the generation of myotubes and satellite cells after adding a compound to a myotube assay workflow is assessed. Said myotube assay workflow is derived from wild-type or DMD human induced pluripotent stem cells (WT hiPSC or DMD hiPSC). Before the addition of said compound, the assay comprises satellite-like cells, but no significant amount of myotubes.
The efficacy of said compound for use in treating, ameliorating, delaying, curing and/or preventing a disease or condition associated with muscle cells and/or satellite cells is positively correlated with the generation of myotubes (i.e. the increase of the area occupied by myotubes on the assay) and/or satellite cells (i.e. the increase of the number of satellite cells) in the assay after adding said compound. The generation of myotubes by the addition of said compound is expressed as the EC50 value, the concentration of said compound that corresponds with the half-maximal generation of myotubes, and the MA (normalized myotube area) value, the normalized area occupied by generated myotubes on the assay. […] Since muscle cells are formed from myotubes during myogenesis, the generation of myotubes in the assay is a good indicator of the ability of said compound to induce the formation of functional muscle cells in vivo. The number of satellite cells is measured as the percentage of Pax7 positive cells, relative to the total number of cells in the assay, as shown in Figure 3. The percentage of Pax7 is a good indicator of the ability of said compound to induce the formation of satellite cells which are able to play a role in muscle repair and regeneration in vivo.
DMD human induced pluripotent stem cells (hereafter "DMD hiPSC"), generated from the NCRM-1 hiPSC WT cell line by gene editing, or WT human induced pluripotent stem cells (hereafter "WT hiPSC"), being NCRM-1 hiPSC wt cell line, have been differentiated according to Chal et al. 2015, 2016, to produce muscle progenitors (hereafter "hMP"). The hMP population contains satellite-like cells (i.e Pax7-positive cells) and satellite cells' progenies (i.e. Myogenin-positive cells).
Figure 1 provides an example of a Myotube assay workflow. At day 0, hMP are thawed and 3.1 million cells are plated into a T75-flask coated with hESC-qualified Matrigel™ (Corning) in SkGM proliferating medium (PromoCells), supplemented with 5 µM Y-27632 (Tocris Bioscience). On day 2, SkGM proliferating medium is refreshed. On day 4, hMP are harvested and transferred into a 384-well plate coated with collagen type I at a density of 3500 cells/well in a DMEM-based medium, containing 5% of knockout serum replacement (Gibco), 1% PenStrep (Gibco), 1% MEM NEAA (Gibco) and 0.1 mM 2-mercaptoethanol (Gibco) (hereafter "K5 medium") and 5 µM Y-27632. Compounds to be tested are then added in the medium and incubated for 3 days at 37°C. On day 7, cells are fixed and immunostained. For example, myotubes (alpha-actinin staining) and satellite-like (Pax7 staining) cells can be analyzed for total myotube area per well or Pax7-positive cell quantification.
DMD hMP were put in the Myotube assay according to the workflow described in Example 2.1. In particular, compound (i) was added at concentrations ranging from 1.5 nM to 30 µM, starting from day 4. hMP were cultivated for three more days in presence of compound (i), then fixed and analyzed for quantification of total myotube area per well. Duplicates of each condition were averaged.

`CSc1cc(Oc2ccnc3c2OCCN3)ccc1NC(=O)Nc1cc(C(C)(C)C)nn1-c1ccccc1` [(cy), 1-(3-(tert-butyl)-1-phenyl-1H-pyrazol-5-yl)-3-(4-((3,4-dihydro-2H-pyrido[3,2-b][1,4]oxazin-8-yl)oxy)-2-(methylthio)phenyl)urea] came in with an Emax of at least 75% and an EC50 of 500 to 1000 nM.

In turn, `CC(C)(C)c1cc(NC(=O)Nc2ccc(Oc3ccnc4[nH]c(=O)cnc34)c3ccccc23)n(-c2ccc3ncccc3c2)n1` [(bb), 1-(3-(tert-butyl)-1-(quinolin-6-yl)-1 H-pyrazol-5-yl)-3-(4-((3-oxo-3,4-dihydropyrido[2,3-b]pyrazin-8-yl)oxy)naphthalen-1-yl)urea] yielded an Emax of at least 75% and an EC50 below 500 nM.

Regarding `CSc1cc(Oc2ccnc3[nH]c(=O)cnc23)ccc1NC(=O)Nc1cc(C(C)(C)C)nn1-c1ccc(C)nc1` [(bd), 1-(3-(tert-butyl)-1-(6-methylpyridin-3-yl)-1 H-pyrazol-5-yl)-3-(2-(methylthio)-4-((3-oxo-3,4-dihydropyrido[2,3-b]pyrazin-8-yl)oxy)phenyl)urea], the Emax was at least 75% and the concentration for a half-maximal effect (EC50) is below 500 nM.

Turning to `CSc1cc(Oc2ccnc(N(CCN(C)C)C(=O)OC(C)(C)C)c2)ccc1NC(=O)Nc1cc(C(C)(C)C)nn1-c1ccccc1` [(ch), tert-butyl (4-(4-(3-(3-(tert-butyl)-1-phenyl-1H-pyrazol-5-yl)ureido)-3-(methylthio)phenoxy)pyridin-2-yl)(2-(dimethylamino)ethyl)carbamate], the maximum response (Emax) lay within 50 to 75% and the EC50 is at least 5000 nM.

Regarding `CC(C)(C)c1cnc(NC(=O)Nc2ccc(Oc3ccnc4c3CCC(=O)N4)c3ccccc23)s1` [(cu), 1-(5-(tert-butyl)thiazol-2-yl)-3-(4-((7-oxo-5,6,7,8-tetrahydro-1,8-naphthyridin-4-yl)oxy)naphthalen-1-yl)urea], the maximal response (Emax) was at least 75% and the EC50 is below 500 nM.

Molecule `CCOC(=O)Nc1cc(Oc2ccc(NC(=O)Nc3ncc(C(C)(C)C)s3)c3ccccc23)ccn1` [(dc), ethyl (4-((4-(3-(5-(tert-butyl)thiazol-2-yl)ureido)naphthalen-1-yl)oxy)pyridin-2-yl)carbamate] displayed an Emax of at least 75% and an EC50 below 500 nM.

On to `CCOC(=O)Nc1cc(Oc2ccc(NC(=O)Nc3cc(C(C)(C)C)on3)c(SC)c2)ccn1` [(di), ethyl (4-(4-(3-(5-(tert-butyl)isoxazol-3-yl)ureido)-3-(methylthio)phenoxy)pyridin-2-yl)carbamate], for which the Emax was at least 75% and the EC50 was below 500 nM.

As to `CCOC(=O)Nc1cc(Oc2ccc(NC(=O)Nc3cc(C(C)(C)C)no3)c3ccccc23)ccn1` [(db), ethyl (4-((4-(3-(3-(tert-butyl)isoxazol-5-yl)ureido)naphthalen-1-yl)oxy)pyridin-2-yl)carbamate], the Emax was at least 75% and the EC50 is below 500 nM.

Molecule `CCOC(=O)Nc1cc(Oc2ccc(NC(=O)Nc3cc(C(C)(C)C)nn3-c3ccccc3)c(SC)c2)ccn1` [(cv), ethyl (4-(4-(3-(3-(tert-butyl)-1-phenyl-1H-pyrazol-5-yl)ureido)-3-(methylthio)phenoxy)pyridin-2-yl)carbamate] gave an Emax of at least 75% and a concentration giving a half-maximal response (EC50) below 500 nM.

Molecule `CC(C)(C)c1cc(NC(=O)Nc2ccc(Oc3ccnc4[nH]c(=O)cnc34)cc2F)[nH]n1` [(h), 1-(3-(tert-butyl)-1H-pyrazol-5-yl)-3-(2-fluoro-4-((3-oxo-3,4-dihydropyrido[2,3-b]pyrazin-8-yl)oxy)phenyl)urea] yielded an Emax of 25 to 50% and an EC50 of at least 5000 nM.

As for `CSc1cc(Oc2ccnc(C(=O)Nc3ccccc3)c2)ccc1NC(=O)Nc1cc(C(C)(C)C)nn1-c1ccccc1` [(co), 4-(4-(3-(3-(tert-butyl)-1-phenyl-1H-pyrazol-5-yl)ureido)-3-(methylthio)phenoxy)-N-phenylpicolinamide], the Emax fell in the range of 25 to 50% and the EC50 was at least 5000 nM.

`CC(C)(C)c1cc(NC(=O)Nc2ccc(Oc3ccnc4[nH]c(=O)cnc34)c(OC(F)(F)F)c2)n(-c2ccccc2)n1` [(cp), 1-(3-(tert-butyl)-1-phenyl-1H-pyrazol-5-yl)-3-(4-((3-oxo-3,4-dihydropyrido[2,3-b]pyrazin-8-yl)oxy)-3-(trifluoromethoxy)phenyl)urea] returned an Emax of 50 to 75% and a concentration giving a half-maximal response (EC50) of 500 to 1000 nM.

`CSc1cc(Oc2ccnc(NC(=O)CO)c2)ccc1NC(=O)Nc1cc(C(C)(C)C)nn1-c1ccccc1` [(dq), N-(4-(4-(3-(3-(tert-butyl)-1-phenyl-1H-pyrazol-5-yl)ureido)-3-(methylthio)phenoxy)pyridin-2-yl)-2-hydroxyacetamide]: the Emax is at least 75% and the EC50 lay in the range of 500 to 1000 nM.

`CSc1cc(Oc2ccnc3[nH]c(=O)cnc23)ccc1NC(=O)Nc1cc(C(C)(C)C)nn1CCCN1CCOCC1` [(bh), 1-(3-(tert-butyl)-1-(3-morpholinopropyl)-1 H-pyrazol-5-yl)-3-(2-(methylthio)-4-((3-oxo-3,4-dihydropyrido[2,3-b]pyrazin-8-yl)oxy)phenyl)urea] came in with an Emax of at least 75% and an EC50 of at least 5000 nM.

As for `CNCC(=O)Nc1cc(Oc2ccc(NC(=O)Nc3cc(C(C)(C)C)nn3-c3ccccc3)c(SC)c2)ccn1` [(bq), N-(4-(4-(3-(3-(tert-butyl)-1-phenyl-1H-pyrazol-5-yl)ureido)-3-(methylthio)phenoxy)pyridin-2-yl)-2-(methylamino)acetamide], the Emax is at least 75%.

In turn, `CNC(=O)c1cc(Oc2ccc(NC(=O)Nc3cc(C(C)(C)C)nn3-c3ccc4ncccc4c3)c3ccccc23)ccn1` [(bf), 4-((4-(3-(3-(tert-butyl)-1-(quinolin-6-yl)-1 H-pyrazol-5-yl)ureido)naphthalen-1-yl)oxy)-N-methylpicolinamide] registered an Emax of at least 75% and an EC50 of 1000 to 5000 nM.

With `CC(=O)n1nc(C(C)(C)C)cc1NC(=O)Nc1ccc(Oc2ccnc3[nH]c(=O)cnc23)cc1F` [(o), 1-(1-acetyl-3-(tert-butyl)-1 H-pyrazol-5-yl)-3-(2-fluoro-4-((3-oxo-3,4-dihydropyrido[2,3-b]pyrazin-8-yl)oxy)phenyl)urea], the Emax was 25 to 50% and the EC50 was at least 5000 nM.

On to `CSc1cc(Oc2ccnc3[nH]c(=O)cnc23)ccc1NC(=O)Nc1cc(C(C)(C)C)nn1-c1ccc(CN(C)C)cc1` [(dp), 1-(3-(tert-butyl)-1-(4-((dimethylamino)methyl)phenyl)-1H-pyrazol-5-yl)-3-(2-(methylthio)-4-((3-oxo-3,4-dihydropyrido[2,3-b]pyrazin-8-yl)oxy)phenyl)urea], for which the Emax was at least 75% and the EC50 was below 500 nM.

Consider `CSc1cc(Oc2ccnc3[nH]c(=O)cnc23)ccc1NC(=O)Nc1cc(C(C)(C)C)no1` [(bx), 1-(3-(tert-butyl)isoxazol-5-yl)-3-(2-(methylthio)-4-((3-oxo-3,4-dihydropyrido[2,3-b]pyrazin-8-yl)oxy)phenyl)urea], for which the maximal response (Emax) was at least 75% and the EC50 lay in the range of 500 to 1000 nM.

Molecule `CSc1cc(Oc2ccnc3[nH]c(=O)cnc23)ccc1NC(=O)Nc1nnc(C(C)(C)C)s1` [(z), 1-(5-(tert-butyl)-1,3,4-thiadiazol-2-yl)-3-(2-(methylthio)-4-((3-oxo-3,4-dihydropyrido[2,3-b]pyrazin-8-yl)oxy)phenyl)urea] had an Emax of at least 75% and a concentration for a half-maximal effect (EC50) of at least 5000 nM.

Turning to `Cc1cc(Oc2ccnc3[nH]c(=O)cnc23)ccc1NC(=O)Nc1cc(C(C)(C)C)nn1-c1ccccc1` [(al), 1-(3-(tert-butyl)-1-phenyl-1 H-pyrazol-5-yl)-3-(2-methyl-4-((3-oxo-3,4-dihydropyrido[2,3-b]pyrazin-8-yl)oxy)phenyl)urea], the Emax is at least 75% and the EC50 is at least 5000 nM.
